Reference: paper PMC11538706, “Integrated Electrochemical Aptamer Biosensing and Colorimetric pH Monitoring via Hydrogel Microneedle Assays for Assessing Antibiotic Treatment” (Advanced Science, 2024)
Read-outs that look alike come from different tables or passages of the source.

Legend:
[1] = system: GEN aptamer; assay: Specificity test of GEN aptamer-modified Flex electrode; assay type: binding; settings: buffer 1X PBS + 2 mM MgCl2; SWV; TOBI 10 µM, DOX 100 ng/mL
Experimental: Additionally, employing the “dual‐frequency” method reduced the batch‐to‐batch variability and improved the sensor response (Figure S6, Supporting Information).
To determine the signal‐on and signal‐off frequencies for each of these aptamers, the aptamer‐modified Flex electrode was first dipped in a blank buffer and scanned (via SWV) at a range of frequencies (Ref). […] The sensor response at each target concentration and for each frequency was calculated via (I – I0) / I0, where “I” is the observed current (SWV peak height) at each condition, and “I0” is the observed current in the blank buffer. As a result, the frequency of 5 and 100 were selected as the signal‐off and signal‐on for the VAN aptamer. […] Afterward (and for the rest of the experiments), the sensor's response is defined as (I – I0) / I0, where the “I” represents the dual‐frequency current (I signal‐on / I signal‐off) at the experimental condition and “I0” represents the dual frequency current (I signal‐on / I signal‐off) of the (0 µM) buffer. To validate the selectivity of HMN‐Flex for VAN/GEN the aptamer‐functionalized Flex electrodes were subjected to non‐specific targets commonly present in ISF and their responses were recorded.

[2] = set-up: method as in PMID 24972859, PMID 29019915; settings: cited from earlier work
[3] = PK analysis: Cmax and AUC from PK models fitted to serum and ISF concentrations; assay type: in vivo, Male Sprague Dawley rats; settings: male, Sprague Dawley, rat, iv
Experimental: The estimation of PK parameters, such as the area under the time‐concentration level curve (AUC) and the peak concentrations (Cmax) was performed using two PK models describing the observed patterns of serum and ISF concentrations (Figure S13, Supporting Information) and the Spearman correlation test was used to assess the correlation between PK parameters in serum and ISF.^[ [53] ^] The ISF VAN concentrations used for PK analysis were drawn by interpolating the sensor's response in the VAN calibration curve. The VAN AUC and Cmax from ISF and serum were correlated with correlation values of 0.82 and 0.79, respectively (Figure 5c‐iii).
We also employed the HMN‐Flex assay for detecting GEN in ISF and drawing its PK profile. […] For this purpose, the HMN‐Flex response was monitored every 10 min up to 90 min, followed by two other measurements at 6‐ and 24‐hours (h) postinjection. […] To the best of our knowledge, this is the first time reporting the changes in ISF GEN levels in the rat animal models. […] Importantly, the PK measurements obtained using HMN‐Flex closely matched those derived from conventional blood‐based measurements while the high temporal resolution offered by the HMN‐Flex assay can potentially revolutionize the current TDM.
Two distinct PK models were utilized for this purpose: one for describing antibiotic concentrations in serum, using a 1‐compartment PK model with linear elimination, and another for ISF, consisting of three compartments in series. The model fitting process was carried out using the first‐order conditional estimation method with interaction (FOCEI) routine in Nonmem v7.4, and subsequent PK profiles were simulated from the fitted models using the mrgsolve package in R. AUC and Cmax values were directly derived from the simulated PK profiles, and the correlation between these PK parameters in serum and ISF was assessed using the Spearman correlation test.

SMILES: COc1cccc2c1C(=O)c1c(O)c3c(c(O)c1C2=O)C[C@@](O)(C(=O)CO)C[C@@H]3O[C@H]1C[C@H](N)[C@H](O)[C@H](C)O1 [DOX, Doxorubicin]
- GEN sensor response to non-specific targets [1]: did not produce a response

SMILES: CNC(C)C1CCC(N)C(OC2C(N)CC(N)C(OC3OCC(C)(O)C(NC)C3O)C2O)O1 (centres unmarked) [GEN, gentamicin]
- protein binding [2]: 30%
- AUC ([3]; ISF, 50 mg/kg, GEN, Rat # 4, dose 50 mg/kg i.v., read-out: ISF AUC (converted)): 1070 µM·h
- Cmax ([3]; ISF, 50 mg/kg, GEN, Rat # 4, dose 50 mg/kg i.v., read-out: ISF Cmax): 221 µM
- AUC ([3]; ISF, 50 mg/kg, GEN, Rat # 5, dose 50 mg/kg i.v., read-out: ISF AUC (converted)): 1230 µM·h
- Cmax ([3]; ISF, 50 mg/kg, GEN, Rat # 5, dose 50 mg/kg i.v., read-out: ISF Cmax): 387 µM
- AUC ([3]; ISF, 100 mg/kg, GEN, Rat # 6, dose 100 mg/kg i.v., read-out: ISF AUC (converted)): 3490 µM·h
- Cmax ([3]; ISF, 100 mg/kg, GEN, Rat # 6, dose 100 mg/kg i.v., read-out: ISF Cmax): 886 µM
- AUC ([3]; interstitial fluid (ISF), 50 mg/kg, GEN, Rat # 2, dose 50 mg/kg i.v., read-out: ISF AUC (converted)): 509 µM·h
- Cmax ([3]; interstitial fluid (ISF), 50 mg/kg, GEN, Rat # 2, dose 50 mg/kg i.v., read-out: ISF Cmax): 148 µM
- AUC ([3]; interstitial fluid (ISF), 50 mg/kg, GEN, Rat # 3, dose 50 mg/kg i.v., read-out: ISF AUC (converted)): 776 µM·h
- Cmax ([3]; interstitial fluid (ISF), 50 mg/kg, GEN, Rat # 3, dose 50 mg/kg i.v., read-out: ISF Cmax): 253 µM
- AUC ([3]; interstitial fluid (ISF), 100 mg/kg, GEN, Rat # 1, dose 100 mg/kg i.v., read-out: ISF AUC (converted)): 848 µM·h
- Cmax ([3]; interstitial fluid (ISF), 100 mg/kg, GEN, Rat # 1, dose 100 mg/kg i.v., read-out: ISF Cmax): 279 µM
- AUC ([3]; interstitial fluid (ISF), 100 mg/kg, GEN, Rat # 2, dose 100 mg/kg i.v., read-out: ISF AUC (converted)): 827 µM·h
- Cmax ([3]; interstitial fluid (ISF), 100 mg/kg, GEN, Rat # 2, dose 100 mg/kg i.v., read-out: ISF Cmax): 324 µM
- AUC ([3]; serum, 50 mg/kg, GEN, Rat # 2, dose 50 mg/kg i.v., read-out: Serum AUC (converted)): 467 µM·h
- Cmax ([3]; serum, 50 mg/kg, GEN, Rat # 2, dose 50 mg/kg i.v., read-out: Serum Cmax): 680 µM
- AUC ([3]; serum, 50 mg/kg, GEN, Rat # 3, dose 50 mg/kg i.v., read-out: Serum AUC (converted)): 321 µM·h
- Cmax ([3]; serum, 50 mg/kg, GEN, Rat # 3, dose 50 mg/kg i.v., read-out: Serum Cmax): 807 µM
- AUC ([3]; serum, 50 mg/kg, GEN, Rat # 4, dose 50 mg/kg i.v., read-out: Serum AUC (converted)): 108 µM·h
- Cmax ([3]; serum, 50 mg/kg, GEN, Rat # 4, dose 50 mg/kg i.v., read-out: Serum Cmax): 268 µM
- AUC ([3]; serum, 50 mg/kg, GEN, Rat # 5, dose 50 mg/kg i.v., read-out: Serum AUC (converted)): 2380 µM·h
- Cmax ([3]; serum, 50 mg/kg, GEN, Rat # 5, dose 50 mg/kg i.v., read-out: Serum Cmax): 4100 µM
- AUC ([3]; serum, 100 mg/kg, GEN, Rat # 1, dose 100 mg/kg i.v., read-out: Serum AUC (converted)): 2410 µM·h
- Cmax ([3]; serum, 100 mg/kg, GEN, Rat # 1, dose 100 mg/kg i.v., read-out: Serum Cmax): 1870 µM
- AUC ([3]; serum, 100 mg/kg, GEN, Rat # 2, dose 100 mg/kg i.v., read-out: Serum AUC (converted)): 1120 µM·h
- Cmax ([3]; serum, 100 mg/kg, GEN, Rat # 2, dose 100 mg/kg i.v., read-out: Serum Cmax): 1320 µM
- AUC ([3]; serum, 100 mg/kg, GEN, Rat # 6, dose 100 mg/kg i.v., read-out: Serum AUC (converted)): 3380 µM·h
- Cmax ([3]; serum, 100 mg/kg, GEN, Rat # 6, dose 100 mg/kg i.v., read-out: Serum Cmax): 4280 µM

SMILES: CN[C@H](CC(C)C)C(=O)N[C@H]1C(=O)N[C@@H](CC(N)=O)C(=O)N[C@H]2C(=O)N[C@H]3C(=O)N[C@H](C(=O)N[C@H](C(=O)O)c4cc(O)cc(O)c4-c4cc3ccc4O)[C@H](O)c3ccc(c(Cl)c3)Oc3cc2cc(c3O[C@@H]2O[C@H](CO)[C@@H](O)[C@H](O)[C@H]2O[C@H]2C[C@](C)(N)[C@H](O)[C@H](C)O2)Oc2ccc(cc2Cl)[C@H]1O [VAN, vancomycin]
- AUC ([3]; in vivo, 15 mg/kg, VAN, Rat # 1, dose 15 mg/kg i.v., read-out: ISF AUC (converted)): 37 µM·h
- Cmax ([3]; in vivo, 15 mg/kg, VAN, Rat # 1, dose 15 mg/kg i.v., read-out: ISF Cmax): 28.3 µM
- AUC ([3]; in vivo, 15 mg/kg, VAN, Rat # 1, dose 15 mg/kg i.v., read-out: Serum AUC (converted)): 59.1 µM·h
- Cmax ([3]; in vivo, 15 mg/kg, VAN, Rat # 1, dose 15 mg/kg i.v., read-out: Serum Cmax): 117 µM
- AUC ([3]; in vivo, 15 mg/kg, VAN, Rat # 2, dose 15 mg/kg i.v., read-out: ISF AUC (converted)): 8.72 µM·h
- Cmax ([3]; in vivo, 15 mg/kg, VAN, Rat # 2, dose 15 mg/kg i.v., read-out: ISF Cmax): 8.4 µM
- AUC ([3]; in vivo, 15 mg/kg, VAN, Rat # 2, dose 15 mg/kg i.v., read-out: Serum AUC (converted)): 50.8 µM·h
- Cmax ([3]; in vivo, 15 mg/kg, VAN, Rat # 2, dose 15 mg/kg i.v., read-out: Serum Cmax): 99.9 µM
- AUC ([3]; in vivo, 45 mg/kg, VAN, Rat # 1, dose 45 mg/kg i.v., read-out: ISF AUC (converted)): 139 µM·h
- Cmax ([3]; in vivo, 45 mg/kg, VAN, Rat # 1, dose 45 mg/kg i.v., read-out: ISF Cmax): 94.5 µM
- AUC ([3]; in vivo, 45 mg/kg, VAN, Rat # 1, dose 45 mg/kg i.v., read-out: Serum AUC (converted)): 216 µM·h
- Cmax ([3]; in vivo, 45 mg/kg, VAN, Rat # 1, dose 45 mg/kg i.v., read-out: Serum Cmax): 254 µM
- AUC ([3]; in vivo, 45 mg/kg, VAN, Rat # 2, dose 45 mg/kg i.v., read-out: ISF AUC (converted)): 51.3 µM·h
- Cmax ([3]; in vivo, 45 mg/kg, VAN, Rat # 2, dose 45 mg/kg i.v., read-out: ISF Cmax): 36.5 µM
- AUC ([3]; in vivo, 45 mg/kg, VAN, Rat # 2, dose 45 mg/kg i.v., read-out: Serum AUC (converted)): 184 µM·h
- Cmax ([3]; in vivo, 45 mg/kg, VAN, Rat # 2, dose 45 mg/kg i.v., read-out: Serum Cmax): 239 µM

SMILES: NC[C@H]1O[C@H](O[C@H]2[C@H](O)[C@@H](O[C@H]3O[C@H](CO)[C@@H](O)[C@H](N)[C@H]3O)[C@H](N)C[C@@H]2N)[C@H](N)C[C@@H]1O [TOBI, Tobramycin]
- GEN sensor response to non-specific targets [1]: increase in current
